Laboratory results published in patent US20070282004A1, “Use of a Cyclopentenone Prostaglandin for Delaying for the Onset and/or Preventing the Continuation of Labour” (Imperial College Innovations Limited, priority 2003, published 2007).
Entries after “also recorded” stand apart in the source; their conditions may differ.

What was measured:
PPAR-γ = target: T1, PPAR-γ (Homo sapiens, UniProt P37231); settings: as stated from the literature; cited from earlier work
T1 sequence (P37231 1-505): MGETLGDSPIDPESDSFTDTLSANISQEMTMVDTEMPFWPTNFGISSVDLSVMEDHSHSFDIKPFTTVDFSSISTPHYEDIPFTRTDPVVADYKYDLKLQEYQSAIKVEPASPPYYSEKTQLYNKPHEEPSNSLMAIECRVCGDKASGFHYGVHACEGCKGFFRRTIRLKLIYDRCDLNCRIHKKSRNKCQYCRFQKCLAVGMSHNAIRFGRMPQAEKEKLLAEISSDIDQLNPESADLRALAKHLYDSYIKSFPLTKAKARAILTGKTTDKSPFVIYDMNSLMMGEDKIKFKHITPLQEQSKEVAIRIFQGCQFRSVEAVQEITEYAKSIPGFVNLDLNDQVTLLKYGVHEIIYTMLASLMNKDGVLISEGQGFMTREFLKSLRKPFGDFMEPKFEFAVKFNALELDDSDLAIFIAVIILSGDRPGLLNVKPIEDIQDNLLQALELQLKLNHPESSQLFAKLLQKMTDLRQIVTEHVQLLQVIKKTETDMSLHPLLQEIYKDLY

NF-κB [1] = assay: NF-κB-dependent luciferase reporter (κB.BG.Luc) in myometrial cells; type: cell-based, human; settings: for IL-1β-induced NF-κB transcriptional activity (κB.BG.Luc reporter): treated 2 h, IL-1β 1 ng/ml 6 h
Procedure: Myometrial cells were transiently transfected with the NFκB-dependent reporter construct κB.BG.Luc, treated with 15dPGJ2 or vehicle for 2 h, ±IL-1β (1 ng/ml) for 6 h. […] Values are normalised for b-gal reporter activity. (NS=nonstimulated).
Myometrial cells were transfected with […] κB.BG.Luc reporter and 200 ng PPAR-γ expression vector and treated with 15d-PGJ2 for 2 h followed by IL-1β (1 ng/ml) for 6 h. Values are normalised for β-galactosidase reporter activity. (NS=nonstimulated).
(§1) Myometrial tissue was collected at term from the upper margin of uterine incision at the time of lower segment caesarean section either prior to the onset of labour (L−) or […] (L+). L+ samples were collected by Dr Mark Johnson and Dr S Soorrana at Chelsea & Westminster Hospital. Myometrial tissue was dissected, rinsed in PBS, and digested in serum-free DMEM containing 15 mg/ml collagenase 1A (Sigma), 15 mg/ml collagenase X, and 50 mg/ml bovine serum albumin for 45 min at 37° C. The cell suspension was filtered through a cell strainer, centrifuged at 400 g for 5 min, and the pellet re-suspended and plated out in DMEM, 10% FCS (Helena BioScience), 1% L-glutainine, 1% penicillin-streptomycin. Cells were used between passage numbers 1-4.
pGL3.6κB.BG.luc: a NF-κB-dependent reporter construct with 6 copies of the NF-κB binding site.
Cells were co-transfected with the renilla vector pRL-CMV or β-galactosidase vector pCH110 as internal controls for transfection efficiencies.

NF-κB [2] = target: T2, NF-κB (Homo sapiens, UniProt P19838+Q04206); assay: EMSA of NF-κB DNA binding in nuclear extracts of treated myometrial cells; type: cell-based; settings: for IL-1β-induced NF-κB DNA binding (EMSA): myometrial cells, treated 2 h, then IL-1β 15 min
T2 construct: nuclear protein extracts from myometrial cells; endogenous in cells; host or cells: primary human myometrial cells (term, passage 1-4)
Procedure: as §1
Nuclear and cytosolic protein extracts were obtained from cultured amnion cells as described by Schreiber et al (1989). For nuclear/cytosolic fractionation, confluent cell monolayers were scraped and lysed using a buffer containing 10 mM HEPES, 10 mM KCl, 0.1 mM EDTA, 0.1 mM EGTA, 2 mM DTT, 1% (v/v) NP-40 and complete protease inhibitor tablets (CPIs, Roche), diluted to manufacturer's instructions. Cell lysates were incubated on ice for 10 min and NP-40 added to a final concentration of 1% (v/v). Lysates were vortexed for 10 secs and centrifuged for 30 secs at 4° C., 12000 g. The supernatants were retained as the cytosolic protein extracts. The pellets were resuspended in buffer containing 10 mM HEPES, 10 mM KCl, 0.1 mM EDTA, 0.1 mM EGTA, 2 mM DTT, 400 mM NaCl, 1% NP-40 (v/v) and CPIs. Samples were shaken vigorously for 15 min in an ice bath. The nuclear protein extracts were obtained in the supernatant following a 5 min centrifugation at 4° C., 12000 g.
Sense and antisense strands (175 nmole/ml each) were incubated in annealing buffer (10 mM Tris-HCl pH7.5, 100 mM NaCl, 1 mM EDTA) for 10 min at 65° C., and allowed to cool at room temperature for 2 h. 3.5 pmole double-stranded oligonucleotides were end-labelled with 0.37 MBq ^32P(γATP) by incubating for 30 min at 37° C. with T4 polynucleotide kinase. Labelled oligonucleotides were recovered by centrifugation at 3000 rpm for 2 min through MicroSpin G-25 or G-50 sephadex columns (Amersham Biosciences).
3-5 μg protein extracts were incubated on ice for 1 h with non-radiolabelled non-specific oligonucleotide (poly(dI-dC) or Oct-1) in a binding buffer (20% (v/V) glycerol, 5 mM MgCl2, 2 mM EDTA, 50 mM Tris-HCl pH7.5, 250 mM NaCl, 2 mM DTT), followed by a 45 min incubation with 0.035 pmole ^32P(γ(ATP)-end labelled oligonucleotide probes:
Oct-1 or SP-1 consensus sequences were used as a controls for a NF-κB-specific effect. The resulting protein/DNA complexes were separated in a 4% acrylamide gel, the gel dried under vacuum at 80° C. and exposed to X-ray film. For supershift analysis, samples were incubated with 2 μg antibodies for 30 min on ice prior to incubation with oligonucleotides. Non-radio-labelled oligonucleotides were used at 100-fold molar excess for specific and non-specific competition for DNA binding. Reagents for EMSA were obtained from Promega Life Sciences, Delta House, Chilworth Research Centre, Southampton SO16 7NS, United Kingdom.

T2 sequence (Q04206 whole entry): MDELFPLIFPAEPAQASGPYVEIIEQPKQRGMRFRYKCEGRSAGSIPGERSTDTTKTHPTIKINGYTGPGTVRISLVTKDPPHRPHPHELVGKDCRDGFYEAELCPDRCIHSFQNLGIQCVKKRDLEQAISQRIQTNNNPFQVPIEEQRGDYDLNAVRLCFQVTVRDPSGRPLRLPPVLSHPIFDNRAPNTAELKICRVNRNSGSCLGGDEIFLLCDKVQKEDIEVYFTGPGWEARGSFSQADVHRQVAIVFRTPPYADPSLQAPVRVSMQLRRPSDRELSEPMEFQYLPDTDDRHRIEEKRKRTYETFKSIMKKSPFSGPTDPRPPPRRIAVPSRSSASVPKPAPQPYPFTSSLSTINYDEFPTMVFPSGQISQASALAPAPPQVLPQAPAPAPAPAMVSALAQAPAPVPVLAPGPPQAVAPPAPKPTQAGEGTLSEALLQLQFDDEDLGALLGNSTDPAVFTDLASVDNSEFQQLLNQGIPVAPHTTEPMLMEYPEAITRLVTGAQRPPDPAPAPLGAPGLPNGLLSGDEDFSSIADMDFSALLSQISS
T2 sequence (P19838 1-433 limits assumed): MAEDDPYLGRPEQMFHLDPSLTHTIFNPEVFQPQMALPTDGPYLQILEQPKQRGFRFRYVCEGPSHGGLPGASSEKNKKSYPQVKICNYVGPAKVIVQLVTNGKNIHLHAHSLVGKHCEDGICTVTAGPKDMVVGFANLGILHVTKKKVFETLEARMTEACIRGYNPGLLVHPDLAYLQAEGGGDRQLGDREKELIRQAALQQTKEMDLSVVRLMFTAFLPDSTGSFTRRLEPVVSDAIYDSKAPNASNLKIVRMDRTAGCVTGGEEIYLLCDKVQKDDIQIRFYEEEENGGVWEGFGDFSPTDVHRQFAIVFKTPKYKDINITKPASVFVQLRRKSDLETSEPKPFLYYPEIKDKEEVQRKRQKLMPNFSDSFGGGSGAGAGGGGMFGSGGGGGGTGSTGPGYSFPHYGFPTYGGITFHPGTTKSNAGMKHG

SMILES | PPAR agonist / ligand activity (PPAR-γ) | Effect of PPARγ overexpression on 15d-PGJ2 inhibition of NF-κB transcriptional activity (NF-κB [1]; 200 ng PPAR-γ expression vector) | IL-1β-induced NF-κB transcriptional activity (κB.BG.Luc reporter) (NF-κB [1]) | IL-1β-induced NF-κB transcriptional activity (κB.BG.Luc reporter) (NF-κB [1]; listed as 15dPGJ2) | Protein binding to a consensus Oct-1 or Sp-1 probe (control) (NF-κB [2]; myometrial and amnion cells) | IL-1β-induced NF-κB DNA binding (EMSA) (NF-κB [2]) | IL-1β-induced NF-κB DNA binding (EMSA) (NF-κB [2]; listed as 15dPGJ2)
CCCCCC=CC=C1C(=O)C=C[C@@H]1CC=CCCCC(=O)O [15d-PGJ2, 15-deoxy-Δ^12,14prostaglandin J2] | is a PPAR agonist | does not potentiate | reducing reporter activity to basal levels; also recorded: inhibited | inhibition | unaffected | inhibited IL1-β-induced NF-κB DNA binding in a dose-dependent manner | inhibition
CCCCC[C@H](O)/C=C/[C@H]1C=CC(=O)[C@@H]1CCCCCCC(=O)O [PGA1, prostaglandin A1] | does not act as a PPAR ligand | – | reduced to basal levels | – | – | inhibition | –
